In US9365506B2, “Compounds and compositions as TLR2 agonists” (NOVARTIS AG, priority 2010, dated 2016):

Target: human TLR2 (Homo sapiens, UniProt O60603)
Assay: Reporter gene assay: HEK 293 cells stably transfected with human TLR2 and NF-kB-driven luciferase reporter
Conditions: for EC50: Hek-TLR2 μM (EC50), HEK 293 stably transfected with human TLR2 and pNifty-Luciferase, 7 hours incubation, concentration giving 50% of maximal signal; for Emax: HEK293, 7 h, read-out: Hek-TLR2 (% Eff)
Protocol: As a control assay, normal Hek293 transfected with pNifty-Luc were used. […] Bright-Glo™ Luciferase assay buffer and substrate were supplied by Promega #E263B and #E264B (assay substrate and buffer respectively). 384 well clear-bottom plates were supplied by Greiner bio-one (#789163-G) and were custom bar-coded plates.
Cells were plated at 25,000 cells/well in 384-well plates in a final volume of 50 μl of media. Cells were allowed to adhere to the plates after overnight (18 hours) culture at 37° C. and 5% CO2. Serially diluted experimental and positive control compounds were then dispensed to each well and incubated for 7 hours at 37° C. and 5% CO2. Cells stimulated with DMSO alone also serve as negative controls. After the incubation, 30 μl of the pre-mix assay buffer and substrate buffer were added to each well according to manufacturer's instructions. The luminescence signal was read on a CLIPR machine with an integration time of 20 seconds per plate.

Chain of human TLR2 (O60603 21-784): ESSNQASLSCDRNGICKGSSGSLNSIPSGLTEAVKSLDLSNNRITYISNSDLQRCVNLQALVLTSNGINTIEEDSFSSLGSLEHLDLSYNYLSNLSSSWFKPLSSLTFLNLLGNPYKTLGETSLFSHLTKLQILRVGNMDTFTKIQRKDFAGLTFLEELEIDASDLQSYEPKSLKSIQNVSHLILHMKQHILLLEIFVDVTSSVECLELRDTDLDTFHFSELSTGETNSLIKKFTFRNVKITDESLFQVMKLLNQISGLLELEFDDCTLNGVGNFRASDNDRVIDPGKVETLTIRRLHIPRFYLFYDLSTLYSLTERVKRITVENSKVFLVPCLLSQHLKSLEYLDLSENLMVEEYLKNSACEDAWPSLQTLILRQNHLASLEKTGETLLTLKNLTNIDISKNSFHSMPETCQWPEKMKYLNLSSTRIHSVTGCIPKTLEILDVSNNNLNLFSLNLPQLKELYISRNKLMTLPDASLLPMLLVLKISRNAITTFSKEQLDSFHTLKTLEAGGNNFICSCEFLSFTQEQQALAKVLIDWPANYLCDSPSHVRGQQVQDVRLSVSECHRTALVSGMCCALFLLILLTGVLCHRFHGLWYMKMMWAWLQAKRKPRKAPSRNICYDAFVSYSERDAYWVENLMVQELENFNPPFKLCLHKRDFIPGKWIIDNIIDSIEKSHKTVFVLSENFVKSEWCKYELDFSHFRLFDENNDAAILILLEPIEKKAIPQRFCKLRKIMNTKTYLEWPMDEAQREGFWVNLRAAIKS

Row | Hek-TLR2 (% Eff) (% Eff relative to Pam3CSK4, HEK 293 human TLR2 NF-kB luciferase) | EC50 | Emax | SMILES
1 | (76%) | 822 nM |  | CCCCCCCCCCNC(=O)OC[C@H](CSC[C@H](N)C(=O)NCCOCCOCCOCCP(=O)(O)O)OC(=O)NCCCCCCCCCC [Example 36, (14R,18R)-14-amino-18-(decylcarbamoyloxy)-13,21-dioxo-3,6,9,20-tetraoxa-16-thia-12,22-diazadotriacontylphosphonic acid]
2 |  | 1860 nM | 20% | CCCCCCCCCCCCOC[C@H](CSC[C@H](N)C(=O)NCCOCCOCCOCCOCCP(=O)(O)O)NC(=O)CCCCCCCCCCC [Example 79, ((17R,21R)-17-amino-21-dodecanamido-16-oxo-3,6,9,12,23-pentaoxa-19-thia-15-azapentatriacontyl)phosphonic acid]
3 |  | 14 nM | 122% | CCCCCCCCCCCC(=O)OC[C@H](CSC[C@H](N)C(=O)NCCOCCC(F)(F)P(=O)(O)O)OC(=O)CCCCCCCCCCC [Example 21, (9R,13R)-9-amino-13-(dodecanoyloxy)-1,1-difluoro-8,16-dioxo-4,15-dioxa-11-thia-7-azaheptacosylphosphonic acid]
4 |  | 2450 nM | 60% | CCCCCCCCCCCCOC[C@H](CSC[C@H](N)C(=O)NCCOCCOCCC(F)(F)P(=O)(O)O)OCCCCCCCCCCCC [Example 22, (12R,16R)-12-amino-16-(dodecyloxy)-1,1-difluoro-11-oxo-4,7,18-trioxa-14-thia-10-azatriacontylphosphonic acid]
5 |  | 3850 nM | 48% | CCCCCCCCCCCCOC[C@H](CSC[C@H](N)C(=O)NCCOCCOCCOCCC(=O)O)NC(=O)CCCCCCCCCCC [Example 33, (15R,19R)-15-amino-19-dodecanamido-14-oxo-4,7,10,21-tetraoxa-17-thia-13-azatritriacontan-1-oic acid]
6 |  | 498 nM | 124% | CCCCCCCCCCCC(=O)OC[C@H](CSC[C@H](N)C(=O)NCCCOCCOCCOCCCN)OC(=O)CCCCCCCCCCC [Example 64, (16R,20R)-1,16-diamino-15-oxo-4,7,10-trioxa-18-thia-14-azahenicosane-20,21-diyl didodecanoate]
7 |  | 5560 nM | 72% | CCCCCCCCCCCC(=O)OC[C@H](CSC[C@H](N)C(=O)NCCCS(=O)(=O)O)OC(=O)CCCCCCCCCCC [Example 84, 3-((R)-2-amino-3-(((R)-2,3-bis(dodecanoyloxy)propyl)thio)propanamido)propane-1-sulfonic acid]
8 |  | 960 nM | 58% | CCCCCCCCCCCCCCCC(=O)N[C@@H](CSC[C@@H](COC(=O)CCCCCCCCCCC)OC(=O)CCCCCCCCCCC)C(=O)N[C@@H](C)C(=O)N[C@H](CCC(=O)O)C(N)=O [Example 75, (4R,7S,10R,14R)-4-carbamoyl-14-(dodecanoyloxy)-7-methyl-6,9,17-trioxo-10-palmitamido-16-oxa-12-thia-5,8-diazaoctacosan-1-oic acid]
9 |  | 30700 nM | 49% | CCCCCCCCCCCC(=O)OC[C@H](CSC[C@H](N)C(=O)NCCCC(C)(C)CO)OC(=O)CCCCCCCCCCC [Example 72, (R)-3-(((R)-2-amino-3-((5-hydroxy-4,4-dimethylpentyl)amino)-3-oxopropyl)thio)propane-1,2-diyl didodecanoate]
10 |  | 1430 nM | 35% | CCCCCCCCCCCCOC[C@H](CSC[C@H](N)C(=O)NCCOCCOCCOCCOCCP(=O)(O)O)OCCCCCCCCCCCC [Example 78, ((17R,21R)-17-amino-21-(dodecyloxy)-16-oxo-3,6,9,12,23-pentaoxa-19-thia-15-azapentatriacontyl)phosphonic acid]
11 |  | 31 nM | 101% | CCCCCCCCCCCC(=O)OC[C@H](CSC[C@H](N)C(=O)NCCOCCOCCC(F)(F)P(=O)(O)O)OC(=O)CCCCCCCCCCC [Example 4, (12R,16R)-12-amino-16-(dodecanoyloxy)-1,1-difluoro-11,19-dioxo-4,7,18-trioxa-14-thia-10-azatriacontylphosphonic acid]
